Source: patent publication US20200230155A1, “TOPICAL CORTICOSTEROID COMPOSITIONS” (Encore Dermatology, Inc., priority 2014, published 2020)
Like-named read-outs stand apart in the source and are kept apart here.

Assays:
[1] = cited from earlier work
skin blanching = details: in vivo; cited from earlier work
[2] = test system: intact skin of healthy volunteers; experiment: Irritation patch test study under semi-occlusive conditions; details: continuous exposure under semi occlusion, 21 patch applications over 21 days
Description: This was a randomized, double-blind, single-center, vehicle-controlled, within-subject comparison patch test study of followings for irritation potential when repeatedly applied to the skin under semi-occlusive conditions in healthy volunteers: • i. […] Vehicle spray (without active agent of Composition 6), • iii.
All subjects received applications of each study product to intact skin at randomly assigned, adjacent sites on the back. Evaluators and subjects were blinded and unaware of the identity of the study product at the patch test sites. The study products were applied under semi-occlusive patch conditions using a 2 cm×2 cm patch. The products were applied to either side of the infrascapular area of the back. Evaluation of dermal reactions at the application sites were assessed clinically using a visual scale that rates the degree of erythema, edema, and other signs of cutaneous irritation.
A total of 21 patch applications were made over a period of 21 days. Irritancy score of each composition was recorded.

Structure (SMILES)	Solubility ([1]; in acetone)	Solubility ([1]; in chloroform)	Solubility ([1]; in ethanol)	Solubility ([1]; in water)	VCA potency class (skin blanching)	Irritation [2]
CCC(=O)OCC(=O)[C@@]1(OC(=O)CC)[C@@H](C)C[C@H]2[C@@H]3CCC4=CC(=O)C=C[C@]4(C)[C@@]3(F)[C@@H](O)C[C@@]21C [Betamethasone dipropionate, 9-fluoro-11(β),17,21-trihydroxy-16(β)-methylpregna-1,4-diene-3,20-dione 17,21-dipropionate]	freely soluble	freely soluble	sparingly soluble	practically insoluble	super potent (Class 1) and/or high potent (Class 2)	
CCCCCCCCCCCCOS(=O)(=O)[O-].[Na+] [0.2% SLS, Sodium lauryl sulfate]						Significantly more irritation
